Biological target: Androgen receptor (Homo sapiens) (UniProt P10275)
Assay: In vivo inhibition of AR in castrated CB17 mouse xenografted with human VCaP cells at 10 mg/kg, po via gavage measured after 16 hrs by ELISA relative to control

**Q.** Which inhibition does the source give for CC1(C)[C@H](NC(=O)c2ccc(N3CCC(CN4CCN(c5cc6c(cc5F)C(=O)N(C5CCC(=O)NC5=O)C6=O)CC4)CC3)c(F)c2)C(C)(C)[C@H]1Oc1ccc(C#N)c(Cl)c1 (stereo partly specified) here?
**A.** The inhibition was greater than 50%.

**Q.** With CC1(C)[C@H](NC(=O)c2ccc(N3CCN(CCCCCOc4ccc5c(c4)C(=O)N([C@H]4CCC(=O)NC4=O)C5=O)CC3)nc2)C(C)(C)[C@H]1Oc1ccc(C#N)c(Cl)c1 as the molecule, how does the inhibition read?
**A.** The inhibition was greater than 50%.

**Q.** With CC(C)N(CC1CCN(c2ccc(C(=O)N[C@H]3C(C)(C)[C@H](Oc4ccc(C#N)c(Cl)c4)C3(C)C)cc2)CC1)[C@H]1C[C@H](Oc2ccc3c(c2)C(=O)N(C2CCC(=O)NC2=O)C3=O)C1 (stereo partly specified) as the molecule, how does the inhibition read?
**A.** Its inhibition is greater than 50%.

**Q.** Which inhibition does the source give for CC1(C)[C@H](NC(=O)c2ccc(CCN3CCN(c4ccc5c(c4)C(=O)N(C4CCC(=O)NC4=O)C5=O)CC3)cc2)C(C)(C)[C@H]1Oc1ccc(C#N)c(Cl)c1 (stereo partly specified) here?
**A.** Its inhibition is greater than 50%.

**Q.** Which inhibition does the source give for CC1(C)[C@H](NC(=O)c2cnc(N3CCN(CCCOc4ccc5c(c4)C(=O)N(C4CCC(=O)NC4=O)C5=O)CC3)cn2)C(C)(C)[C@H]1Oc1ccc(C#N)c(Cl)c1 (stereo partly specified) here?
**A.** Its inhibition is greater than 50%.

**Q.** For CC1(C)[C@H](NC(=O)c2ccc(N3CCC(CN4CCN(c5ccc6c(c5)C(=O)N(C5CCC(=O)NC5=O)C6=O)CC4)CC3)nn2)C(C)(C)[C@H]1Oc1ccc(C#N)c(Cl)c1 (stereo partly specified), which inhibition is on record?
**A.** The inhibition was less than 50%.

**Q.** How did the inhibition turn out when CC1(C)[C@H](NC(=O)c2ccc(N3CCN(CCCOc4ccc5c(c4)C(=O)N(C4CCC(=O)NC4=O)C5=O)CC3)cc2)C(C)(C)[C@H]1Oc1ccc(C#N)c(Cl)c1 (stereo partly specified) was run?
**A.** Its inhibition is greater than 50%.

**Q.** For CC1(C)[C@H](NC(=O)c2ccc(N3CCC(CN4CCN(c5cc6c(cc5F)C(=O)N(C5CCC(=O)NC5=O)C6=O)CC4)CC3)nn2)C(C)(C)[C@H]1Oc1ccc(C#N)c(Cl)c1 (stereo partly specified), which inhibition is on record?
**A.** The inhibition was greater than 50%.

**Q.** CC1(C)[C@H](NC(=O)c2ccc(N3CCC(CN4CCN(c5ccc6c(c5F)C(=O)N(C5CCC(=O)NC5=O)C6=O)CC4)CC3)cc2)C(C)(C)[C@H]1Oc1ccc(C#N)c(Cl)c1 (stereo partly specified) was tested. Which inhibition did it give?
**A.** Its inhibition is greater than 50%.

**Q.** With CC1(C)[C@H](NC(=O)c2ccc(N3CCN(CCCCCOc4ccc5c(c4)C(=O)N(C4CCC(=O)NC4=O)C5=O)CC3)nc2)C(C)(C)[C@H]1Oc1ccc(C#N)c(C#N)c1 (stereo partly specified) as the molecule, how does the inhibition read?
**A.** The inhibition was greater than 50%.

**Q.** With CC1(C)[C@H](NC(=O)c2cc(F)c(CCOCCCN3CCN(c4ccc5c(c4)C(=O)N(C4CCC(=O)NC4=O)C5=O)CC3)c(F)c2)C(C)(C)[C@H]1Oc1ccc(C#N)c(Cl)c1 (stereo partly specified) as the molecule, how does the inhibition read?
**A.** Its inhibition is less than 50%.

Source: ChEMBL document CHEMBL4706719, “Androgen Receptor Degradation for Therapeutic Intervention of Prostate Cancer Drug Resistance” (ACS Med Chem Lett, 2021)
